Assay results: US20140287495A1, “Methods of Inducing Differentiation of Stem Cells” (ES Cell International Pte LTD, priority 2001, published 2014)

Legend:
Brachyury T = experiment: Northern blot of Brachyury T expression in P19EC aggregates; type: cell-based, mouse; settings: FIG. 10B
Protocol: (§1) END-2 cells and hES cells were cultured as described in Example 1. The hES2 cell line from ES Cell International Pte Ltd was used in all experiments. […] Co-cultures were then grown for up to 6 weeks and scored for the presence of areas of beating muscle from 5 days onwards. HepG2 cells, a carcinoma cell line resembling liver parenchymal cells (Knowles et al, (1980) Science 209:497-9), were cultured in DMEM plus 10% FCS and passaged twice weekly. […] Hanging-drop cultures of P19 EC cells were initiated and maintained in DMEM/Ham's F12 (1:1), as described previously (Mummery et al, 1991), using regular FCS while bulk production of P19 embryoid bodies in the presence or absence of END-2 conditioned medium for isolation of RNA for Northern blotting, was in the presence of charcoal-stripped FCS, as described (Mummery et al, 1991) to reduce background levels of cardiomyocyte differentiation caused by lipophilic substances possibly with retinoid-like activity in FCS. P19 clone 6 were cultured in aMEM and treated aMEM conditioned by END-2 cells. For electrophysiology, beating aggregates were dissociated using collagenase and replated on gelatine-coated coverslips.
RNA was isolated from P19 aggregates and poly A+RNA selected, as described previously (Mummery et al, 1990, Dev. Biol. 142: 406-413).
Background differentiation levels are reduced virtually to zero if the FCS is passed over an activated charcoal column (DCC-FCS) to remove residual retinoids; in addition, differentiation is blocked by activin (van den Eijnden-van Raaij et al, 1991, Mech. Dev. 33:157-166). […] The P19EC assay system was preferred because these cells are feeder independent for undifferentiated growth. […] Moreover, the induction of Brachyury T is blocked by the additional presence of activin (FIG. 10B), consistent with its ability to block the formation of beating muscle in aggregates. The transient expression of Brachyury T is similar to that observed during early mesoderm differentiation during gastrulation of the mouse embryo.

P19 EC cells [1] = experiment: Induction of beating muscle in replated P19 EC aggregates (hanging-drop assay); type: cell-based, mouse; settings: P19EC aggregates, day 10
Protocol: as §1, with “coverslips. […]” for “coverslips.”

[2] = tested on: hES-derived cardiomycytes; experiment: Beating of hES-derived cardiomyocytes in response to pharmacological agonists; type: cell-based, human; settings: hES2/END-2 co-culture derived cardiomyocytes; basal beating 45-60 times per minute
Protocol: as §1
The majority of the experiments described here were carried out using the hES2 cell line (Reubinoff et al, 2000). […] Oct-4 expression thus correlated with phenotypic characteristics of undifferentiated cells. hES cells were subcultured by transferring small clumps of undifferentiated cells either to new, mit.C-treated MEFs or confluent cultures of mit.C-treated END-2 cells. After approximately 5d under these conditions, epithelial cells became evident which over the next few days become fluid-filled cysts (FIG. 1A). […] In addition, by 10 d areas of rhythmically contracting cells in more solid aggregates become evident (FIG. 1A,3e) with a variety of overall morphologies (FIG. 1B,3e). […]

P19 EC cells [3] = settings: END-2 conditioned medium induced differentiation; cited from earlier work

**Q.** With `C[S+](C)[O-]` [DMSO, dimethyl sulphoxide] as the molecule, how does the “Brachyury T (early mesoderm marker) expression” value (Brachyury T; aggregation phase, first 3 days, Northern blot) read?
**A.** induced

**Q.** And the aggregates beating (P19 EC cells [1])?
**A.** All aggregates beat

**Q.** With `C[N+](C)(C)CCOC(N)=O` [carbachol] as the molecule, how does the “beating of hES-derived cardiomyocytes in response to agonist” value (shortened to “beating of hES-derived cardiomyocytes”) [2] read?
**A.** upregulated

**Q.** Which “beating of hES-derived cardiomyocytes” value [2] does the source give for `CC(C)NCC(O)c1ccc(O)c(O)c1` (centres unmarked) [isoprenaline] here?
**A.** upregulated

**Q.** For `CNC[C@H](O)c1cccc(O)c1` [phenylephrine], which “beating of hES-derived cardiomyocytes” value [2] is on record?
**A.** upregulated

**Q.** What does the source list for “activin: factor that blocks Brachyury T induction and the formation of beating muscle in aggregates”?
**A.** cardiomyocyte differentiation of P19 EC aggregates in presence of activin (P19 EC cells [3]): blocked; DMSO induced Brachyury T expression in presence of activin (Brachyury T; P19EC aggregates): blocked; END-2 CM induced Brachyury T expression in additional presence of activin (Brachyury T; P19EC aggregates): blocked
